Tests used:
[1] = target: T1, Atlantic cod estrogen receptor alpha (gmEra) LBD (Gadus morhua, UniProt U5ILH7); test: Luciferase reporter gene assay, gmEra antagonism (antiestrogenic activity), coexposure with 3 nM EE2; assay type: cell-based; conditions: coexposure with EE2 (3 nM, EC20)
T1 sequence (U5ILH7 170-455): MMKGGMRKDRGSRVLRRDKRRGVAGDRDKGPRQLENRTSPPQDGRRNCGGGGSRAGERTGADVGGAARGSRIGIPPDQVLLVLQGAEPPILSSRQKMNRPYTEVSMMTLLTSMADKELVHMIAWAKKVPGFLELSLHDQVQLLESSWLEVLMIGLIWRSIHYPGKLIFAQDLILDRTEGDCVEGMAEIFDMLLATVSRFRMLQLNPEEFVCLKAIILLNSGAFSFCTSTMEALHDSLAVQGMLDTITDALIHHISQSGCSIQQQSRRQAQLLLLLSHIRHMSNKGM
Experimental: (§1) Ligand activation of gmEra and gmAra was studied with a luciferase reporter gene assay in COS-7 cells transiently transfected with the pCMX-GAL4(DBD)-gmEra(LBD) or pCMX-GAL4(DBD)-gmAra(LBD) plasmid by using the TransIT-LT1 reagent (TransIT-LT1 Transfection Reagent, Mirus). Cells were seeded into 96-well plates (5000 cells/well) and incubated for 24 h before cotransfection with the plasmid mixture (100 ng/well). The plasmid mixture contained GAL4-UAS luciferase reporter plasmid (tk-(MH100)x4 luc), the pCMX-GAL4(DBD)-gmEra(LBD) or pCMX-GAL4(DBD)-gmAra(LBD) receptor plasmids (2:1 reporter:receptor plasmid mass ratio), and a plasmid constitutively producing the β-galactosidase enzyme used for normalization of transfection efficiency (pCMV- β-Gal). […] The maximum DMSO/methanol concentrations in the exposure wells were 0.5% (v/v) in DMEM medium without phenol red (Sigma-Aldrich). After exposure, cells were lysed, and luciferase and beta-galactosidase activities were measured as luminescence and absorbance (420 nm) after the addition of luciferin and ONPG substrates, respectively, using an Enspire Multimode plate reader (PerkinElmer, Waltham, Massachusetts, USA).
To investigate potential antiestrogenic effects, COS-7 cells transiently expressing gmEra LBD were exposed to the 12 bisphenols in binary mixtures with a fixed concentration of EE2 (3 nM, corresponding to EC20) (Figure 2 and Table 1).
(§2) The dose–response curves were created using nonlinear regression and the four-parameter logistic fit in Graphpad Prism v.9. *p < 0.05 versus solvent control by ANOVA and Dunnett’s multiple comparison post hoc test.

[2] = target: T2, Atlantic cod androgen receptor alpha (gmAra) LBD (Gadus morhua, UniProt D5FIC7); test: Luciferase reporter gene assay, gmAra agonism (androgenic activity) in transfected COS-7 cells; conditions: COS-7, monkey, 24 h, read-out: gmAra Emax
T2 sequence (D5FIC7 409-718): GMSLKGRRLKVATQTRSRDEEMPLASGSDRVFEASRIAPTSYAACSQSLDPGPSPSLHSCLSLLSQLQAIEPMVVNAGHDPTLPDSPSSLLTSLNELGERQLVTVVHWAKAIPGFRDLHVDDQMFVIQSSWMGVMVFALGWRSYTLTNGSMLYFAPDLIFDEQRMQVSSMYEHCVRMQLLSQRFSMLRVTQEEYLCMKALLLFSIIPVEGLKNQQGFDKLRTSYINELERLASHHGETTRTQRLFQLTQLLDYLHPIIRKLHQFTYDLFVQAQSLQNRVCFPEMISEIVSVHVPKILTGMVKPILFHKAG
Experimental: as §1
Figure 3 Androgenic activity of bisphenols. COS-7 cells were transiently transfected with gmAra LBD and exposed individually to 12 bisphenol analogs at increasing concentrations. […] The dose–response curves were created using nonlinear regression and the four-parameter logistic fit in Graphpad Prism v.9. For comparison, the dose–response curve of BPA (black line) is indicated together with each individual BP tested (red line). *p < 0.05 versus solvent control by one-way ANOVA and Dunnett’s multiple comparison post hoc test.

[3] = target: T2, Atlantic cod androgen receptor alpha (gmAra) LBD; test: Luciferase reporter gene assay, gmAra antagonism (antiandrogenic activity), coexposure with 5 nM testosterone; assay type: cell-based; conditions: BPs 0.003–50 μM with 5 nM testosterone
Experimental: as §1, §2

[4] = test system: Atlantic cod precision-cut liver slices (PCLS); test: PCLS viability, lactate dehydrogenase (LDH) assay; assay type: cell-based, Atlantic cod (Gadus morhua); conditions: 1µM; 96 h exposure
Experimental: To monitor the viability of the liver tissue, the release of LDH to the medium was quantified with an LDH Cytotoxicity Detection kit (Roche, Basel, Switzerland) according to the manufacturer’s protocol. Briefly, 50 μL of PCLS medium collected at the end of 96 h exposure was pipetted in triplicates into a clear 96-well plate, 50 μL of provided reagent mixture with the substrate was added, and the mixture was incubated for 10 min at room temperature in the dark. Absorbance was measured at 490 nm using an EnSpire plate reader (PerkinElmer, Waltham, USA), with 650 nm reference measurement. The LDH activity was normalized to the liver tissue weight, and statistical analysis was performed as described above for the ELISA data.
Figure S3. Assessment of PCLS tissue viability in BP-treated and DMSO control groups. Data points represent mean ± SD of fold-changes (normalized to DMSO) in LDH activity (in the culture medium) per mg of tissue (n = 5-6). For each compound, increasing concentrations used are arranged bottom up vertically (y-axis), […]
starting with DMSO control. […]
in comparisons between the different concentrations and the corresponding DMSO control. One treatment group […]
Figure S4. Sequence alignment of ligand binding domain of gmEra and hsERa. Alignment was constructed in Jalview using Clustal with default settings. […]

CC(C)(c1ccc(OCC2CO2)cc1)c1ccc(OCC2CO2)cc1 (centres unmarked) [BADGE]
antiestrogenic effect on gmEra, result in words [1]: no antiestrogenic effects
maximal fold induction [2]: 1

Oc1ccc(C2(c3ccc(O)cc3)c3ccccc3-c3ccccc32)cc1 [BPFL]
maximal fold induction [2]: 1.3
effect on testosterone-mediated gmAra activity, result in words [3]: significant increases in gmAr activity
LDH activity in PCLS culture medium vs DMSO control, result in words [4]: significantly lower LDH activity

Source: publication PMC11325555, “Interaction of Bisphenol A and Its Analogs with Estrogen and Androgen Receptor from Atlantic Cod (Gadus morhua)” (Environmental Science & Technology, 2024)
